Data taken from US7745437B2, “Compounds and compositions as protein kinase inhibitors” (IRM LLC, priority 2004, dated 2010).

Key:
wild type Bcr-abl = molecular target: T1, wild type Bcr-abl (Homo sapiens, UniProt P00519); assay: Proliferation of Ba/F3 cells expressing wild type Bcr-abl; format: cell-based
T1 construct: expressed in transfected cells; host or cells: Ba/F3; the other entry of the earlier key: BCR (P11274, Breakpoint cluster region protein)
Procedure: (§1) 32D-p210 cells are plated into 96 well TC plates at a density of 15,000 cells per well. 50 μL of two fold serial dilutions of the test compound (Cmax is 40 μM) are added to each well (STI571 is included as a positive control). After incubating the cells for 48 hours at 37° C., 5% CO2, 15 μL of MTT (Promega) is added to each well and the cells are incubated for an additional 5 hours. The optical density at 570 nm is quantified spectrophotometrically and IC50 values, the concentration of compound required for 50% inhibition, determined from a dose response curve.
(§2) Compounds of the invention are tested for their antiproliferative effect on Ba/F3 cells expressing either wild type or the mutant forms of BCR-Abl (G250E, E255V, T3151, F317L, M351T) that confers resistance or diminished sensitivity to STI571. The antiproliferative effect of these compounds on the mutant-BCR-Abl expressing cells and on the non transformed cells were tested at 10, 3.3, 1.1 and 0.37 μM as described above (in media lacking IL3). The IC50 values of the compounds lacking toxicity on the untransformed cells were determined from the dose response curves obtained as describe above.

G250E Bcr-abl = molecular target: T2, G250E Bcr-abl (Homo sapiens, UniProt P00519, G250E); assay: Proliferation of Ba/F3 cells expressing mutant Bcr-abl G250E; format: cell-based
T2 construct: expressed in transfected cells; host or cells: Ba/F3; the other entry of the earlier key: BCR (P11274, Breakpoint cluster region protein)
T2 sequence (P00519 229-512 G250E limits assumed): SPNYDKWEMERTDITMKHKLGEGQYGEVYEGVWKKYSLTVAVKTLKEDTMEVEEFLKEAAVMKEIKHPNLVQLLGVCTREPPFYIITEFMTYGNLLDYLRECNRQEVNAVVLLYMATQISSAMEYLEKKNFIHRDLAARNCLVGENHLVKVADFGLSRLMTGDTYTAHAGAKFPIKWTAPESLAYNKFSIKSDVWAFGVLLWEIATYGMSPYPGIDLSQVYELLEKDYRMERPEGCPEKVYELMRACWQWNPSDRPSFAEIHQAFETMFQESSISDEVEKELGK
Procedure: as §1, §2

E255V Bcr-abl = molecular target: T3, E255V Bcr-abl (Homo sapiens, UniProt P00519, E255V); assay: Proliferation of Ba/F3 cells expressing mutant Bcr-abl E255V; format: cell-based
T3 construct: expressed in transfected cells; host or cells: Ba/F3; the other entry of the earlier key: BCR (P11274, Breakpoint cluster region protein)
Procedure: as §1, §2

F317L Bcr-abl = molecular target: T4, F317L Bcr-abl (Homo sapiens, UniProt P00519, F317L); assay: Proliferation of Ba/F3 cells expressing mutant Bcr-abl F317L; format: cell-based
T4 construct: expressed in transfected cells; host or cells: Ba/F3; the other entry of the earlier key: BCR (P11274, Breakpoint cluster region protein)
Procedure: as §1, §2

M351T Bcr-abl = molecular target: T5, M351T Bcr-abl (Homo sapiens, UniProt P00519, M351T); assay: Proliferation of Ba/F3 cells expressing mutant Bcr-abl M351T; format: cell-based
T5 construct: expressed in transfected cells; host or cells: Ba/F3; the other entry of the earlier key: BCR (P11274, Breakpoint cluster region protein)
T5 sequence (P00519 242-493 M351T limits assumed): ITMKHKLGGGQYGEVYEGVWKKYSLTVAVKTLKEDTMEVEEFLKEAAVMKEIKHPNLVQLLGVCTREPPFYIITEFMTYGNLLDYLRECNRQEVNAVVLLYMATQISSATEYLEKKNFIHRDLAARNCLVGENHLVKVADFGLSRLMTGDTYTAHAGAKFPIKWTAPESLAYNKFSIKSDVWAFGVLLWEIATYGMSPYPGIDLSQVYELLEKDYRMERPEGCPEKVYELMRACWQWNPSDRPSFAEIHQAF
Procedure: as §1, §2

FLT3 = molecular target: T6, FLT3 (Homo sapiens, UniProt P36888, cells depend on it, form not given); assay: FLT3 (Cellular Assay), Ba/F3-FLT3-ITD cell proliferation; format: cell-based; conditions: read-out: IC50 for FLT3
T6 sequence (P36888 1-993): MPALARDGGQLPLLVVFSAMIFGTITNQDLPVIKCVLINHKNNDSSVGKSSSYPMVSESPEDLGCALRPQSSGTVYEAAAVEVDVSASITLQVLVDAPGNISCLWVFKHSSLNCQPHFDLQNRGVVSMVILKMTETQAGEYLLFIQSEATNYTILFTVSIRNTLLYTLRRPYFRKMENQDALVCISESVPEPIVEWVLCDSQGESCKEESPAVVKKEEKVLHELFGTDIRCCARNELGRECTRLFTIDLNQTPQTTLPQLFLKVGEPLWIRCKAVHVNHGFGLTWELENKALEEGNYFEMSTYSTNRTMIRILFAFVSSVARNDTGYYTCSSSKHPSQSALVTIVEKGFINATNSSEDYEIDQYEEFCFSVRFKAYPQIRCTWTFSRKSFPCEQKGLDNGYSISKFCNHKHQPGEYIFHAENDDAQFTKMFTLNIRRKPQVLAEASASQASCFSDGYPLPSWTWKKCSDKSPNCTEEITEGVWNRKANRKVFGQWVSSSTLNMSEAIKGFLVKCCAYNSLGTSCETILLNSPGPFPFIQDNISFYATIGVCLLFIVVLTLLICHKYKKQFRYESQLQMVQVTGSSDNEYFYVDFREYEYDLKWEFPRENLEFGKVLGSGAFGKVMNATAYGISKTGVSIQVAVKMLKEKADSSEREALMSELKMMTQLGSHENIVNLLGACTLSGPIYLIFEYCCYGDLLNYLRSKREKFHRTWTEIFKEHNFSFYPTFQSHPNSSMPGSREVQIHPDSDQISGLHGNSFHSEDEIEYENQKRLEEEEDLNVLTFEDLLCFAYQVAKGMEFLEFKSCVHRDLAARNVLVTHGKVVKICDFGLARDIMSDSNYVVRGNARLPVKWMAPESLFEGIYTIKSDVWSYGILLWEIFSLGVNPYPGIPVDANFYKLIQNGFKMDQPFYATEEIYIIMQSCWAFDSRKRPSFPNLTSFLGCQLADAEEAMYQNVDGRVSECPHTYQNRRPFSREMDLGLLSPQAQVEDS

PDGFRβ = molecular target: T7, PDGFRβ (Homo sapiens, UniProt P09619); assay: PDGFRβ (Cellular Assay), Ba/F3-Tel-PDGFRβ cell proliferation; format: cell-based; conditions: Ba/F3-Tel-PDGFRβ cells; read-out: IC50 for PDGFRβ
T7 construct: fused on or other part: P41212 (Transcription factor ETV6)

FGFR3 [1] = molecular target: T8, FGFR3 (Homo sapiens, UniProt P22607); assay: FGFR3 (Enzymatic Assay), HTRF; format: biochemical; design: purchased Upstate; conditions: purified FGFR3, 3 μM ATP; read-out: IC50 for the FGFR3 enzyme assay
Procedure: Kinase activity assay with purified FGFR3 (Upstate) is carried out in a final volume of 10 μL containing 0.25 μg/mL of enzyme in kinase buffer (30 mM Tris-HCl pH7.5, 15 mM MgCl2, 4.5 mM MnCl2, 15 μM Na3VO4 and 50 μg/mL BSA), and substrates (5 μg/mL biotin-poly-EY (Glu, Tyr) (CIS-US, Inc.) and 3 μM ATP). Two solutions are made: the first solution of 5 μl contains the FGFR3 enzyme in kinase buffer was first dispensed into 384-format ProxiPlate® (Perkin-Elmer) followed by adding 50 nL of compounds dissolved in DMSO, then 5 μl of second solution contains the substrate (poly-EY) and ATP in kinase buffer was added to each wells. The reactions are incubated at room temperature for one hour, stopped by adding 10 μL of HTRF detection mixture, which contains 30 mM Tris-HCl pH7.5, 0.5 M KF, 50 mM ETDA, 0.2 mg/mL BSA, 15 μg/mL streptavidin-XL665 (CIS-US, Inc.) and 150 ng/mL cryptate conjugated anti-phosphotyrosine antibody (CIS-US, Inc.). After one hour of room temperature incubation to allow for streptavidin-biotin interaction, time resolved florescent signals are read on Analyst GT (Molecular Devices Corp.). IC50 values are calculated by […] analysis of the percentage inhibition of each compound at 12 concentrations (1:3 dilution from 50 μM to 0.28 nM).
Target sequence in this assay (P22607 23-806): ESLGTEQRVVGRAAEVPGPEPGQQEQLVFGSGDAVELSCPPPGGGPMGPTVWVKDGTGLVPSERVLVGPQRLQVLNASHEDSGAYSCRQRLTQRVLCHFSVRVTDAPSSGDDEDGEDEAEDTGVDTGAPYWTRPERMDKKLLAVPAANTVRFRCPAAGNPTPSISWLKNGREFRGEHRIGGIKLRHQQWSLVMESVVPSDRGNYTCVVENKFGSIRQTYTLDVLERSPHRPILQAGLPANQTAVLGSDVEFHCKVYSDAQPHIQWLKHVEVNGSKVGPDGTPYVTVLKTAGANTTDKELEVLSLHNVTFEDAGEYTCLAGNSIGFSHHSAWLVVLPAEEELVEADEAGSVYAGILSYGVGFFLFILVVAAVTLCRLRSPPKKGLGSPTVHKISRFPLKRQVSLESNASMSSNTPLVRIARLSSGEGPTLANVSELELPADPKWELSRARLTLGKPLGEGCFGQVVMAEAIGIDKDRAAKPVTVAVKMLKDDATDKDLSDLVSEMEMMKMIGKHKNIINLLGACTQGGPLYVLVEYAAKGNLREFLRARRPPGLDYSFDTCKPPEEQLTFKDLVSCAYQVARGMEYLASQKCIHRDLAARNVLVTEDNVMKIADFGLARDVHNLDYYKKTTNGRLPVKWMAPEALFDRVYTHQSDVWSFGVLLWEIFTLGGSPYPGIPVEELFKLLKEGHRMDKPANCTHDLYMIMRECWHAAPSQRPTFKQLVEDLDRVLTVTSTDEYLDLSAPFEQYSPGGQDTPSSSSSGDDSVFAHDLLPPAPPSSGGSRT

FGFR3 [2] = molecular target: T8, FGFR3; assay: FGFR3 (Cellular Assay), Ba/F3-TEL-FGFR3 cell proliferation; format: cell-based; design: fused on or other part: P41212 (Transcription factor ETV6); conditions: Ba/F3-TEL-FGFR3 cells, 48 hours; read-out: IC50 for the FGFR3 cellular assay
Procedure: Compounds of the invention are tested for their ability to inhibit transformed Ba/F3-TEL-FGFR3 cells proliferation, which is depended on FGFR3 cellular kinase activity. Ba/F3-TEL-FGFR3 are cultured up to 800,000 cells/mL in suspension, with RPMI 1640 supplemented with 10% fetal bovine serum as the culture medium. Cells are dispensed into 384-well format plate at 5000 cell/well in 50 μL culture medium. Compounds of the invention are dissolved and diluted in dimethylsufoxide (DMSO). Twelve points 1:3 serial dilutions are made into DMSO to create concentrations gradient ranging typically from 10 mM to 0.05 μM. Cells are added with 50 nL of diluted compounds and incubated for 48 hours in cell culture incubator. AlamarBlue® (TREK Diagnostic Systems), which can be used to monitor the reducing environment created by proliferating cells, are added to cells at final concentration of 10%. After additional four hours of incubation in a 37° C. cell culture incubator, fluorescence signals from reduced AlamarBlue® (Excitation at 530 nm, Emission at 580 nm) are quantified on Analyst GT (Molecular Devices Corp.). IC50 values are calculated by linear regression analysis of the percentage inhibition of each compound at 12 concentrations.
Target sequence in this assay (P22607 472-761 limits assumed, stated change not applied): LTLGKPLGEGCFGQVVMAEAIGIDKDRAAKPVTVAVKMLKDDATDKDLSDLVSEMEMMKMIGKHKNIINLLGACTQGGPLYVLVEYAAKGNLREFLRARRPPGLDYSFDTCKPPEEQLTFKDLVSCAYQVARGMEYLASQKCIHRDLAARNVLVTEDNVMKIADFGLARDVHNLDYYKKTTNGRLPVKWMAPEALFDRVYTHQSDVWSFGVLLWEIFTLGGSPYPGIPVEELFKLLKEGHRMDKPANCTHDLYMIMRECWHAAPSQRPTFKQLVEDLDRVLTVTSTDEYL

T7 sequence (P09619 600-962 limits assumed, change not shown): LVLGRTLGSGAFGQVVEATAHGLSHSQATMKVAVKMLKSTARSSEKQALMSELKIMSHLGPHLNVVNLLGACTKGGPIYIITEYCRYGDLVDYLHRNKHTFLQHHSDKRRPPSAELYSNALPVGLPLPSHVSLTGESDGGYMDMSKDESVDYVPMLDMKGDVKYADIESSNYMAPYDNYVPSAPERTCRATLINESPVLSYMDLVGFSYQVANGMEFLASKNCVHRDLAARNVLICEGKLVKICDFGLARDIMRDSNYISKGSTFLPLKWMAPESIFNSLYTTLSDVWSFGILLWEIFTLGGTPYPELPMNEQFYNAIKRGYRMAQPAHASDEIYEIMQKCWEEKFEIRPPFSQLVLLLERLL

| IC50 (wild type Bcr-abl) [nM] | IC50 (G250E Bcr-abl) [nM] | IC50 (E255V Bcr-abl) [nM] | IC50 (F317L Bcr-abl) [nM] | IC50 (M351T Bcr-abl) [nM] | GI50 (FLT3) [nM] | GI50 (PDGFRβ) [nM] | IC50 (FGFR3 [1]) [nM] | GI50 (FGFR3 [2]) [nM] | Structure (SMILES) |
| --- | --- | --- | --- | --- | --- | --- | --- | --- | --- |
| < 0.5 | 20 | 36 | < 0.5 | < 0.5 |  |  |  |  | Cc1cn(-c2cc(C(=O)Nc3ccc(C)c(Nc4nccn4-c4cc(NC5CC5)ncn4)c3)cc(C(F)(F)F)c2)cn1 [Compound 27, N-{3-[1-(6-cyclopropylamino-pyrimidin-4-yl)-1H-imidazol-2-ylamino]-4-methyl-phenyl}-3-(4-methyl-imidazol-1-yl)-5-trifluoromethyl-benzamide] |
|  |  |  |  |  | 89 | 2 | 65 | 37 | Cc1ccc(NC(=O)c2ccc(CN3CCN(C)CC3)c(C(F)(F)F)c2)cc1Nc1nccn1-c1cc(NC2CC2)ncn1 [Compound 26, N-{3-[1-(6-Cyclopropylamino-pyrimidin-4-yl)-1H-imidazol-2-ylamino]-4-methyl-phenyl}-4-(4-methyl-piperazin-1-ylmethyl)-3-trifluoromethyl-benzamide] |
|  |  |  |  |  | 149 | 2 | 130 | 34 | CCN1CCN(Cc2ccc(C(=O)Nc3ccc(C)c(Nc4nccn4-c4cc(NC5CC5)ncn4)c3)cc2C(F)(F)F)CC1 [Compound 25, N-{3-[1-(6-Cyclopropylamino-pyrimidin-4-yl)-1H-imidazol-2-ylamino]-4-methyl-phenyl}-4-(4-ethyl-piperazin-1-ylmethyl)-3-trifluoromethyl-benzamide] |
